{"source": "patent US20160045487A1", "about": "“COMPOSITIONS AND METHODS FOR TREATING NEUROPATHY” (CHILDEREN'S MEDICAL CENTER CORPORATION, priority 2013, published 2016)", "key": {"[1]": {"system": "wild type mice", "assay": "Hot plate thermal nociception test in wild type mice", "format": "in vivo, mouse", "details": "cream 1.5 mM, 51° C. hotplate, P28-P42", "procedure": "Thermal nociceptive responses in wild type mice treated with either control or XIB4035 (1.5 mM) containing cream were compared using the hotplate test (51° C.) beginning at four weeks of age (p28) and continued to six weeks of age (P42).\n(§1) As a first test, a cream containing XIB4035 (1.5 mM) was applied directly to the hind paws of GFAP-DN-erbB4 and wild type mice twice daily for a period of 4 weeks starting prior to symptom onset (P21). Mice of both genotypes were also treated with the base cream containing no drug for control. Mice were tested for responses to a noxious thermal stimulus prior to the initiation of treatment and every 7 days for the duration of the experiment.\nTransgenic mouse lines used were as previously described (Lacomis et al., Muscle Nerve 26, 173-188 (2002); Comblath et al., Current opinion in Neurology 19, 446-450 (2006)). Animals were kept in the animal facility with free access to food and water. Behavioral experiments were performed in a quiet environment at the same time of day. The hot plate test was performed using a “controlled hot-plate analgesia meter” (Columbus Instruments) heated to 54° C. Paw withdrawal latency was measured as the time required for the mouse to visibly respond to the thermal stimulus, e.g. licking paws, shaking paws, or jumping off of the plate. […]"}, "[2]": {"system": "GFAP-DN-erbB4 mice", "assay": "Hot plate (54° C.) thermal nociception test, GFAP-DN-erbB4 small fiber neuropathy model", "format": "in vivo, mouse", "procedure": "as §1\nHowever, in the clinic, therapy would almost certainly begin after patients present with symptoms of SFN. Therefore, it was determined whether topical XIB4035 can act as a disease-modifying agent in the GFAP-DN-erbB4 neuropathy model starting after animals are clearly symptomatic (P28). […] While IB4 labeling in mutant mice was lower than wild types regardless of treatment, IB4 signal was clearly present in mutant mice treated with XIB4035 while absent in those treated with control cream (FIG. 3D; 83% of XIB4035 treated mice (n=6) with IB4+ lamina II terminals vs 0% (n=4) in control treated mice) (FIG. 3D).\nTransgenic mouse lines used were as previously described (Lacomis et al., Muscle Nerve 26, 173-188 (2002); Comblath et al., Current opinion in Neurology 19, 446-450 (2006)). Animals were kept in the animal facility with free access to food and water. Behavioral experiments were performed in a quiet environment at the same time of day. The hot plate test was performed using a “controlled hot-plate analgesia meter” (Columbus Instruments) heated to 54° C. Paw withdrawal latency was measured as the time required for the mouse to visibly respond to the thermal stimulus, e.g. licking paws, shaking paws, or jumping off of the plate.\nThe cream containing XIB4035 (1.5 mM, ZereneX Molecular Ltd., Manchester, UK) consisted of N-methyl-pyrrolidone (6.25%), isopropyl myristate (6.25%) and petroleum jelly (87.5%). Control cream had the same ingredients without XIB4035. Cream was applied twice daily to the hind paws of mice starting at P21 for a period of 4 weeks for prophylactic treatment of GFAP-DN-erbB4. […]"}, "[3]": {"target": "T1, GFRα2/RET (Homo sapiens, UniProt O00451+P07949)", "T1 construct": "B(E)2-C cells, which express only GFRα2 together with RET; endogenous in cells; host or cells: B(E)2-C / BE(2)-C cells", "T1 sequence (O00451 22-444 limits assumed)": "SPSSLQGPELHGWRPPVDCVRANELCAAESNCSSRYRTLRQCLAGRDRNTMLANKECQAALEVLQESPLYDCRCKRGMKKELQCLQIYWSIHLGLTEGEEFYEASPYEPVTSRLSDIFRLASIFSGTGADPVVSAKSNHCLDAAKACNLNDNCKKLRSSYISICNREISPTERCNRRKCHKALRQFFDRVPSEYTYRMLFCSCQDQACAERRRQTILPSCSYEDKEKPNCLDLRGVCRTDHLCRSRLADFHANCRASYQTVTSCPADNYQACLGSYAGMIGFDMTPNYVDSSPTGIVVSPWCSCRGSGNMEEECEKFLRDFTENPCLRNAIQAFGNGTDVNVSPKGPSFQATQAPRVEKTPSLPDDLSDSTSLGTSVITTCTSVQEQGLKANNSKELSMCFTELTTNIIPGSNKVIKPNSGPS", "T1 sequence (P07949 29-1114)": "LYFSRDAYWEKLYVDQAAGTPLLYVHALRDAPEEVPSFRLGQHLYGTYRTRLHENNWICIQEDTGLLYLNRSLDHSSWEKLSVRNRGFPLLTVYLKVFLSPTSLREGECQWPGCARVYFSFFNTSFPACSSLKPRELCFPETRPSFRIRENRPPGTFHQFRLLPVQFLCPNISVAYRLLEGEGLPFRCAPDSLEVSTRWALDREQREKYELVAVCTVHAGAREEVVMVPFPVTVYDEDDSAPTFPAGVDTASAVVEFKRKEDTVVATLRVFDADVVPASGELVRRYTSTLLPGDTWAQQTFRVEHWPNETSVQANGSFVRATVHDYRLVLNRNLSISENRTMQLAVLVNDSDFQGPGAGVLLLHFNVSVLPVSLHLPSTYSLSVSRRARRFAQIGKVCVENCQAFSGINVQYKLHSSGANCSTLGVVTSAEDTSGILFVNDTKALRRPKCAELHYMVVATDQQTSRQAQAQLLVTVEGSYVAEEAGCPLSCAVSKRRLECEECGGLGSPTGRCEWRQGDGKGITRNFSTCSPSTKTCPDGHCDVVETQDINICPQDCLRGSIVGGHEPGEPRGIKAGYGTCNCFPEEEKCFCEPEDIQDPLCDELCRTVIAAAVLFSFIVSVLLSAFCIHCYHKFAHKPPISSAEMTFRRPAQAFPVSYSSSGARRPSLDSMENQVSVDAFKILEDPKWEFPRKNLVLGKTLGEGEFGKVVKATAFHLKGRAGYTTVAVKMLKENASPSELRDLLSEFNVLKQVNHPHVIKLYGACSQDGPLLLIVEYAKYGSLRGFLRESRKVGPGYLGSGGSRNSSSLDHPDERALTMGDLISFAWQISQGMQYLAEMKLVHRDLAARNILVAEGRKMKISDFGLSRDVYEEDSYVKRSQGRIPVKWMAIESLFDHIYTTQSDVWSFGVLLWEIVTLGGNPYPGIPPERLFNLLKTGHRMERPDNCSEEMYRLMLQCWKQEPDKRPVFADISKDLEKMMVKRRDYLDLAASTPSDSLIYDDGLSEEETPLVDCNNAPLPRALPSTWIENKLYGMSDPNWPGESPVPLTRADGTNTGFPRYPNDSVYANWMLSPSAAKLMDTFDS", "assay": "NRTN/GFRα2-induced RET phosphorylation in B(E)2-C cells", "format": "cell-based", "details": "2 nM NRTN with 20 μM XIB4035, 10 minutes, then 60 minutes growth medium", "procedure": "B(E)2-C cells, which express GFRα2, were treated under different conditions (no treatment, 2 nM NRTN, or 2 nM NRTN with 20 μM XIB4035) for 10 minutes. Cells were either lysed immediately or after incubation in growth medium for an additional 60 minutes.\nSince the original report argued that XIB4035 displaces GDNF binding to GFRα1 expressing cells (FIG. 2 in Tokugawa et al., Neurochem Int 42, 81-86 (2003).), potentially ARTN, on TH-luciferase activity and Ret phosphorylation. […] In this experiment, cells were treated with GDNF or ARTN with or without XIB4035 for 10 minutes and cell lysates were either collected immediately or treatment was washed out and replaced with growth media for 30, 60, or 120 minutes. […] Therefore, we tested cells expressing only one GFRα using either N2A cells (which express RET) transfected with GFRα1 or GFRα3 expression constructs, or B(E)2-C cells, which express only GFRα2 together with RET. […] The GFRα1 or GFRα3 transfected N2A cells were then treated with XIB4035 alone, the appropriate ligand for the expressed receptor alone, or XIB4035 and ligand in combination for 10 minutes, and collected lysates immediately after treatment or 60 minutes after washout. […] Similar results were obtained with GFRα2 and NRTN using B(E)2-C cells (FIG. 8). […]"}}}
{"smiles": "CCN(CC)CCCC(C)Nc1cc(/C=C/c2ccccc2Cl)nc2cc(Cl)ccc12", "note": "(centres unmarked) [XIB4035, N4-{7-chloro-2-[(E)-2-(2-chloro-phenyl)-vinyl]-quinolin-4-yl}-N1,N1-diethyl-pentane-1,4-diamine]", "values": [{"measurement": "thermal hyperalgesia", "setting": "[1]", "value": "did not induce thermal hyperalgesia"}, {"measurement": "reaction times to noxious thermal stimulus (thermal nociception)", "setting": "[2]; prophylactic, cream 1.5 mM on hind paws twice daily, 4 weeks from P21, 54° C. hot plate", "value": "indistinguishable from wild type animals"}, {"measurement": "neuropathic symptoms (thermal nociception)", "setting": "[2]; therapeutic, treatment started after onset (P28), read one week later (P35), persisted with continued treatment", "value": "significant reduction in symptoms"}, {"measurement": "neuropathic symptoms after interruption of treatment", "setting": "[2]; treatment initiated at P28, interrupted at P35", "value": "neuropathic symptoms reappeared one week later"}, {"measurement": "RET phosphorylation at 60 min", "setting": "[3]", "value": "detected"}]}
